In patent publication US20110263526A1, “Nitric Oxide Releasing Prodrugs of Therapeutic Agents” (PIRAMAL LIFE SCIENCES LIMITED, priority 2010, published 2011):
“Also recorded” adds a separate entry of the source.

How the values were obtained:
[1] = tested on: Salmonella strains TA100, TA98, TA1535, TA1537 and TA102 and Escherichia coli strain WP2 uvrA; assay: AMES genotoxicity assay (bacterial reverse mutation test), six strains; type: cell-based, Salmonella typhimurium; Escherichia coli; details: up to 5000 μg/plate (10-5000 μg/plate)
Excerpt: (§1) AMES test or bacterial reverse mutation test uses five mutant strains (i.e., TA98, TA100, TA1535, TA1537, TA102) of Salmonella typhimurium to test the mutagenicity of chemical substances (Kristien Mortelmans and Errol Zeiger, The Ames Salmonella/microsome mutagenicity assay, Mutation Research 2000, 455, 29-60 and the relevant reference cited therein). These mutants are called his mutants because of their dependence on an external source of histidine to grow. The test also uses one trp mutant strain WP2 uvrA (which needs external supply of tryptophan for its growth) of Escherichia coli (Kristein Mortelmans and Edward S. Riccio, The bacterial tryptophan reverse mutation assay with Escherichia coli WP2, Mutation Research 2000, 455, 61-69 and the relevant references cited therein). If the bacteria are incubated in the presence of a mutagen, a reverse mutation is induced, and the bacteria will grow. However, if the chemical substance is not mutagenic, there will be no reversion and thus no growth. The result is thus obtained in the absence of metabolic activation. Because many chemicals that are poor mutagens become potent mutagens after they have passed through the liver, homogenate of rat liver, called the S9 extract, are added to the bacteria before incubation. The bacteria/S9 mixture is then plated on a medium containing no histidine (use of tryptophan-deficient medium in case of E. coli strain), and the test chemical is placed in the center of the plate. The result is thus obtained in the presence of metabolic activation. A second plate that contains a non-mutagenic solvent as a negative control and a third plate that contains a known mutagen as a positive control are also run simultaneously. All the 3 types of plates (each type of plate, in fact, run simultaneously in triplicate for obtaining statistically significant data) are incubated for 48 hours at 37° C. The above procedure is called the plate incorporation method. The presence of numerous colonies of revertants in the test disk indicates a positive result: that is, the chemical substance is a mutagen (i.e., mutagenic if the increase in revertants is >2 fold for TA98, TA100, TA102 and WP2/uvrA or >3 fold for TA1535 and TA1537). Also, a positive result would be considered reliable when there is a dose-dependent increase in revertants at any two consecutive non-toxic concentrations which can be in the range of 10-5000 μg/plate. The presence of only a few spontaneous revertant colonies indicates a negative result. If a negative or equivocal result is obtained, the pre-incubation method is performed in which the cells are exposed to the test compounds for 30 min before plating. Also, before Ames test is initiated, a toxicity test on the chemical substance is performed using TA100 strain in the concentration range of 10-5000 μg/plate. […] When the test substance is found to be toxic at higher concentration range then the genotoxicity of that material is tested only in the non-toxic lower concentration range.

[2] = tested on: TA100; assay: Ames test: toxicity test using TA100 strain; type: cell-based, Salmonella typhimurium; details: up to 5000 μg/plate (10-5000 μg/plate)
Excerpt: as §1

[3] = tested on: carrageenan-induced rat paw edema; assay: Anti-inflammatory activity in carrageenan-induced rat paw edema model; type: in vivo, male Sprague-Dawley rats; details: for Anti-inflammatory activity (% Inhibition) @ 3 hours / Anti-inflammatory activity (% Inhibition) @ 5 hours: inhibition of paw edema vs control, Mean ± SEM, n = 8; for Anti-inflammatory activity (% Inhibition) @ 3 hours: oral dose containing 5 mg/kg of naproxen in PEG 400, 3 hours after carrageenan; for Anti-inflammatory activity (% Inhibition) @ 5 hours: oral dose containing 5 mg/kg of naproxen in PEG 400, 5 hours after carrageenan
Description: […] […] One hour later, carrageenan (100 μl, 1% w/v) was injected in to their paws. The control group received PEG 400 (1 ml/kg).

[4] = tested on: rats; assay: Ulcerogenic activity (gastric ulcer lesions) in rats; type: in vivo; details: dose containing 100 mg/kg of naproxen; for Gastric ulcers (Mean ± SEM) (mm^2) @ 100 mg/kg eq. @ 5 hours: overnight fasted rats, sacrificed after 5 h, total area of lesions; for Ulcer development (in words): rats, 5 h
Description: The animals were sacrificed after 5 h of drug administration. The stomachs of the animals treated were separated, perfused with 2% formalin (10 ml), and then a large curvature was excised. The severity of the mucosal damage was assessed on the basis of the size of the observed ulcer lesions in the images captured using a stereomicroscope attached to a digital camera (Stemi 2000, Zeiss, Germany). The Image Pro Plus software (version 5.1) was used to quantify the hemorrhagic/ulcer lesions in pixels and converted into mm^2. The total area of lesions were calculated for each treatment group and the measure of gastric ulcers (Mean±SEM) (mm^2) presented in Table 3.

SMILES	melting point [°C]	Genotoxicity to 6 strains [1]	Toxicity to TA100 [2]	further results
CC(=O)Nc1ccc(OC(=O)c2ccc(COC(=O)OC(C)O[N+](=O)[O-])cc2)cc1 (centres unmarked) [HD5-L20-R1, 4-Acetamidophenyl 4-(((1-(nitrooxy)ethoxy)carbonyloxy)methyl)benzoate]	149 to 152	–	–	–
CCCCc1nc(Cl)c(COC(=O)c2ccc(COC(=O)OC(C)O[N+](=O)[O-])cc2)n1Cc1ccc(-c2ccccc2-c2nnn[nH]2)cc1 (centres unmarked) [HD6-L20-R1, (1-((2′-(1H-Tetrazol-5-yl)biphenyl-4-yl)methyl)-2-butyl-4-chloro-1H-imidazol-5-yl)methyl 4-(((1-(nitrooxy)ethoxy)carbonyloxy)methyl)benzoate]	107 to 109	–	–	–
COc1ccc2cc([C@H](C)C(=O)OCCSSCCOC(=O)OC(C)O[N+](=O)[O-])ccc2c1 (stereo partly drawn) [I-CD1-L1-R1, (2S)-2-((2-((1-(nitrooxy)ethoxy)carbonyloxy)ethyl)disulfanyl)ethyl 2-(6-methoxynaphthalen-2-yl)propanoate]	–	non-mutagenic in all the aforementioned six bacterial strains; also recorded: Non-genotoxic	non-toxic to TA100	–
COc1ccc2cc([C@H](C)C(=O)OC/C=C\COC(=O)OC(C)O[N+](=O)[O-])ccc2c1 (stereo partly drawn) [I-CD1-L2-R1, (2S)-((Z)-4-((1-(nitrooxy)ethoxy)carbonyloxy)but-2-enyl) 2-(6-methoxynaphthalen-2-yl)propanoate]	76 to 78	non-mutagenic in all the aforementioned six bacterial strains; also recorded: Non-genotoxic	non-toxic to TA100	Anti-inflammatory activity (in words) ([3]; carrageenan-induced rat paw edema model, dose containing 5 mg/kg of naproxen): anti-inflammatory activity comparable to that of naproxen; Anti-inflammatory activity (% Inhibition) @ 3 hours [3]: 54.27 ± 5.31%; Anti-inflammatory activity (% Inhibition) @ 5 hours [3]: 36.61 ± 8.92%; Gastric ulcers (Mean ± SEM) (mm^2) @ 100 mg/kg eq. @ 5 hours [4]: 0 ± 0 mm^2; Ulcer development (in words) [4]: none of the animals treated with the nitric oxide releasing prodrug of naproxen, I-CD1-L2-R1 showed any signs of development of ulcers
COc1ccc2cc([C@H](C)C(=O)OCCCOC(=O)OC(C)O[N+](=O)[O-])ccc2c1 (stereo partly drawn) [I-CD1-L4-R1, (2S)-3-((1-(nitrooxy)ethoxy)carbonyloxy)propyl 2-(6-methoxynaphthalen-2-yl) propanoate]	–	non-mutagenic in all the aforementioned six bacterial strains; also recorded: Non-genotoxic	non-toxic to TA100	–
COc1ccc2cc([C@H](C)C(=O)OCC[S+]([O-])CCOC(=O)OC(C)O[N+](=O)[O-])ccc2c1 (stereo partly drawn) [I-CD1-L16-R1, (2S)-2-(2-((1-(nitrooxy)ethoxy)carbonyloxy)ethylsulfinyl)ethyl 2-(6-methoxynaphthalen-2-yl)propanoate]	112 to 115	non-mutagenic in all the aforementioned six bacterial strains; also recorded: Non-genotoxic	non-toxic to TA100	–
COc1ccc2cc([C@H](C)C(=O)OCCS(=O)(=O)CCOC(=O)OC(C)O[N+](=O)[O-])ccc2c1 (stereo partly drawn) [I-CD1-L17-R1, (2S)-2-(2-((1-(nitrooxy)ethoxy)carbonyloxy)ethylsulfonyl)ethyl 2-(6-methoxynaphthalen-2-yl)propanoate]	98 to 100	Non-mutagenic with TA 1535	Non-toxic	–
COc1ccc2cc([C@H](C)C(=O)OCCCSCCCOC(=O)OC(C)O[N+](=O)[O-])ccc2c1 (stereo partly drawn) [I-CD1-L18-R1, (2S)-3-(3-((1-(nitrooxy)ethoxy)carbonyloxy)propylthio)propyl 2-(6-methoxynaphthalen-2-yl)propanoate]	–	non-mutagenic in all the aforementioned six bacterial strains; also recorded: Non-genotoxic	non-toxic to TA100	–
CC(OC(=O)OC/C=C\COC(=O)C[C@H](O)C[C@H](O)CCn1c(-c2ccc(F)cc2)c(-c2ccccc2)c(C(=O)Nc2ccccc2)c1C(C)C)O[N+](=O)[O-] (stereo partly drawn) [I-CD8-L2-R1, (3R,5R)-((Z)-4-((1-(nitrooxy)ethoxy)carbonyloxy)but-2-enyl) 7-(2-(4-fluorophenyl)-5-isopropyl-3-phenyl-4-(phenylcarbamoyl)-1H-pyrrol-1-yl)-3,5-dihydroxyheptanoate]	56 to 58	–	–	–
CCCC1O[C@@H]2C[C@H]3[C@@H]4CCC5=CC(=O)C=C[C@]5(C)[C@H]4[C@@H](O)C[C@]3(C)[C@]2(C(=O)COC(=O)c2ccc(COC(=O)OC(C)O[N+](=O)[O-])cc2)O1 (some centres unmarked) [I-HD4-L20-R1]	–	Non-mutagenic with TA 1535	Non-toxic	–
COc1ccc2cc([C@H](C)C(=O)O)ccc2c1 [Naproxen, naproxen, reference compound]	–	–	–	Anti-inflammatory activity (% Inhibition) @ 3 hours [3]: 65.45 ± 5.84%; Anti-inflammatory activity (% Inhibition) @ 5 hours [3]: 49.09 ± 10.35%; Gastric ulcers (Mean ± SEM) (mm^2) @ 100 mg/kg eq. @ 5 hours [4]: 75 ± 13 mm^2; Ulcer development (in words) [4]: severe haemorrhagic lesions
